28 molecules from patent publication USRE46630E1, “Substituted 4-pyridones and their use as inhibitors of neutrophil elastase activity” (Boehringer Ingelheim International GmbH, priority 2012, dated 2017) can be followed below.

For orientation: IC50 means the point on the concentration scale where inhibition reaches its midpoint.

For this test, the target named is T1, Human neutrophil elastase (Homo sapiens, UniProt P08246).
T1 construct: purchased Calbiochem 324681
T1 sequence (P08246 30-267): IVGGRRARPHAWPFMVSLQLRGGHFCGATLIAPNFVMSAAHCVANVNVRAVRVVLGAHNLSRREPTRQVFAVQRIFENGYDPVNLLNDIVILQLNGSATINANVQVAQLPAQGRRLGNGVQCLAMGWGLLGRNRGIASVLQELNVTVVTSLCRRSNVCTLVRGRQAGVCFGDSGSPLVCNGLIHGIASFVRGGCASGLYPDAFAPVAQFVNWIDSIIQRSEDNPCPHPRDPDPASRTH
In words: Human Neutrophil Elastase Assay. The settings on record: Neutrophil Elastase assay; substrate MeOSuc-Ala-Ala-Pro-Val-AMC 250 μM; 15 min preincubation, 60 min incubation at room temperature; pH 7.5. The class given is biochemical. The method in brief:
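Run in 100 mM Tris, 500 mM NaCl, pH 7.5 with 0.01% BSA, with compounds prediluted in DMSO then buffer (5% DMSO final). Fluorescence was read at 380 nm excitation/460 nm emission after enzyme inactivation. Values were normalised to inactivated-enzyme (0%) and uninhibited-enzyme (100%) controls.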
Regarding `CNC(=O)c1cn(Cc2ccc(C#N)cc2S(=O)(=O)C2CC2)c(C)c(-c2cccc(C(F)(F)F)c2)c1=O` [Example 27], the IC50 came out at 8.1 nM.

For `Cc1c(-c2cccc(C(F)(F)F)c2)c(=O)c(C(=O)NCC(C)(C)O)cn1C(C)c1ccc(C#N)cn1` (stereo not shown) [Example 47.11], the IC50 turned out to be 63.5 nM.

With `Cc1c(-c2cccc(C(F)(F)F)c2)c(=O)c(C(=O)NCCCCO)cn1Cc1ccc(C#N)cc1` [Example 1.20], half-maximal inhibition (IC50) was put at 10.6 nM.

In the case of `Cc1c(-c2cccc(C(F)(F)F)c2)c(=O)c(C(=O)NCC#N)cn1C(C)c1ccc(C#N)cc1` (stereo not shown) [Example 7.18], the IC50 is < 1 nM.

The molecule `Cc1c(-c2cccc(C(F)(F)F)c2)c(=O)c(C(=O)NCCC(C)O)cn1C(C)c1ccc(C#N)cn1` (stereo not shown) [Example 47.4] returned an IC50 of 12.2 nM.

The molecule `Cc1c(-c2cccc(C(F)(F)F)c2)c(=O)c(C(=O)NCC[N+](C)(C)C)cn1Cc1ccc(C#N)cc1` [Example 12.1, (2-{[1-(4-Cyano-benzyl)-6-methyl-4-oxo-5-(3-trifluoromethyl-phenyl)-1,4-dihydro-pyridine-3-carbonyl]-amino}-ethyl)-trimethyl-ammonium chloride] registered an IC50 of 35.9 nM.

Regarding `Cc1c(-c2cccc(C(F)F)c2)c(=O)c(C(=O)NCCn2cccn2)cn1C(C)c1ccc(C#N)cc1` (stereo not shown) [Example 8.15], 4.4 nM corresponded to half-maximal inhibition (IC50).

`Cc1c(-c2cccc(F)c2)c(=O)c(C(=O)NCc2ccc(S(C)(=O)=O)cc2)cn1Cc1ccc(C#N)cc1` [Example 6.5] displayed an IC50 of 9.6 nM.

Regarding `Cc1c(-c2ccnc(C(F)(F)F)c2)c(=O)c(C(=O)NCC(C)(C)C)cn1C(C)c1ccc(C#N)cc1` (stereo not shown) [Example 9.52], the midpoint of inhibition, the IC50, lay at 420 nM.

`CNC(=O)c1cn(C(C)c2ccc(C#N)cc2)c(C)c(-c2ccnc(C(F)(F)F)c2)c1=O` (single isomer, unassigned) [Example 9A] yielded an IC50 of 3.7 nM.

For `CCNC(=O)c1cn(C(C)c2ccc(C#N)cc2)c(C)c(-c2ccnc(C(F)(F)F)c2)c1=O` (stereo not shown) [Example 9.56], the IC50 was 6.1 nM.

In turn, `COc1cc(-c2c(C)n(Cc3ccc(C#N)cc3)cc(C(=O)NCc3ccc(S(C)(=O)=O)cc3)c2=O)ccn1` [Example 6.6] came in with an IC50 of 38.6 nM.

`Cc1c(-c2ccnc(C(F)(F)F)c2)c(=O)c(C(=O)NC2COCC2O)cn1C(C)c1ccc(C#N)cc1` (stereo not shown) [Example 9.40]: 69.4 nM corresponded to half-maximal inhibition (IC50).

Regarding `Cc1c(-c2ccnc(C(F)(F)F)c2)c(=O)c(C(=O)NCCCN(C)C)cn1C(C)c1ccc(C#N)cc1` (stereo not shown) [Example 9.11], the midpoint of inhibition, the IC50, lay at 18.3 nM.

`Cc1c(-c2cccc(C(F)(F)F)c2)c(=O)c(C(=O)NCc2ccc(S(C)(=O)=O)cn2)cn1Cc1ccc(C#N)nc1` [Example 4.8] yielded an IC50 of 1.4 nM.

As for `Cc1c(-c2cccc(C(F)(F)F)c2)c(=O)c(C(=O)N[C@H]2CCC(=O)NC2)cn1Cc1ccc(C#N)cc1` [Example 1.53], the IC50 amounted to 9 nM.

Regarding `CNC(=O)c1cn(C(C)c2ccc(C#N)cc2)c(C)c(-c2cccc(C(F)F)c2)c1=O` (single isomer, unassigned) [Example 8B], the half-maximal inhibitory concentration (IC50) came to 522 nM.

Molecule `Cc1c(-c2cccc(C(F)(F)F)c2)c(=O)c(C(=O)NCCCS(C)(=O)=O)cn1Cc1ccc(C#N)cc1` [Example 1.16] displayed an IC50 of 7.4 nM.

With `Cc1c(-c2cccc(C(F)(F)F)c2)c(=O)c(C(=O)NCC2(O)CCN(C)CC2)cn1Cc1ccc(C#N)cc1` [Example 1.8], the IC50 came to 83 nM.

Turning to `Cc1c(-c2cccc(C(F)(F)F)c2)c(=O)c(C(=O)NCC(F)F)cn1C(C)c1ccc(C#N)cc1` (stereo not shown) [Example 7.20], inhibition was half-maximal at 3.6 nM (IC50).

Regarding `Cc1c(-c2ccnc(C(F)(F)F)c2)c(=O)c(C(=O)NCC(F)(F)F)cn1C(C)c1ccc(C#N)cc1` (stereo not shown) [Example 9.43], 11.5 nM corresponded to half-maximal inhibition (IC50).

Molecule `Cc1c(-c2cccc(C(F)(F)F)c2)c(=O)c(C(=O)NC(C)C#N)cn1C(C)c1ccc(C#N)cn1` (stereo not shown) [Example 47.16] showed an IC50 of 6.2 nM.

`CNC(=O)c1cn(C(C)c2ccc(C#N)cn2)c(C)c(-c2cccc(C(F)F)c2)c1=O` (single isomer, unassigned) [Example 16B] gave an IC50 of 372 nM.

The molecule `COCCCNC(=O)c1cn(Cc2ccc(C#N)cc2)c(C)c(-c2cccc(C(F)(F)F)c2)c1=O` [Example 1.3] returned an IC50 of 13 nM.

Molecule `Cc1c(-c2ccnc(C(F)(F)F)c2)c(=O)c(C(=O)NCC(=O)OC(C)C)cn1C(C)c1ccc(C#N)cc1` (stereo not shown) [Example 9.31] had an IC50 of 18.7 nM.

Molecule `CCNC(=O)c1cn(C(C)c2ccc(C#N)cn2)c(C)c(-c2ccnc(C(F)(F)F)c2)c1=O` (stereo not shown) [Example 19, 1-[1-(5-Cyano-pyridin-2-yl)-ethyl]-2-methyl-4-oxo-2′-trifluoromethyl-1,4-dihydro-[3,4′]bipyridinyl-5-carboxylic acid ethylamide] returned an IC50 of 22.2 nM.

As to `Cc1c(-c2cccc(C(F)(F)F)c2)c(=O)c(C(=O)NCCO)cn1C(C)c1ccc(C#N)cc1` (stereo not shown) [Example 7.9], the IC50 was 2.3 nM.

`COC(=O)C(C)NC(=O)c1cn(C(C)c2ccc(C#N)cc2)c(C)c(-c2ccnc(C(F)(F)F)c2)c1=O` (stereo not shown) [Example 9.33] came in with a concentration for half-maximal inhibition (IC50) of 23.1 nM.
